Data on one substance can be found in publication PMC4950319, “Kinetic and structural characterization of amyloid‐β peptide hydrolysis by human angiotensin‐1‐converting enzyme” (The Febs Journal, 2016).

This test concerns the target T1, Cdom (soluble form of the C‐domain of sACE) (Homo sapiens, UniProt P12821).
T1 construct: lacks the transmembrane region and unique 36 amino acid N terminus (and is therefore identical to the sACE C‐domain); made in house; host or cells: CHO cells
The experiment in a line: Aβ(4–10)Y hydrolysis by Cdom, fluorogenic assay. In kind it is biochemical. The settings on record: fluorescence λex 320 nm, λem 420 nm, Hepes pH 7.5 buffer as for Aβ(4–10)Q, 5 min time point, enzyme 0.835 pmol, n = 3. The text has this:
Fluorogenic substrates designed around the established N‐terminal Asp7‐Ser8 cleavage site of the full‐length Aβ(1–42) were used to develop a higher throughput assay. There are two variations of the short fluorogenic peptides: Aβ(4–10)Q (Abz‐FRHDSG(Q)‐EDDnp) which has an N‐terminal Abz donor and a C‐terminal EDDnp quencher group attached to an additional Gln residue. The second peptide, Aβ(4–10)Y (Abz‐FRHDSG‐(NT)) has a different quencher molecule, NT, which substitutes for the naturally occurring Tyr residue.
An alternative fluorogenic peptide, Abz‐FRHDSG‐(NT) (BIOPEP™ South Africa) was assayed, with 100 μL enzyme and 100 μL substrate (at a final enzyme concentration within 10% hydrolysis of total substrate; see Table 3) as above, in 96‐well plates. The samples were read at the 5 min time point on a Cary Eclipse spectrofluorimeter (Varian Inc.) at λex = 320 nm and λem = 420 nm. Kinetic constants, inner filter effect and standard curves were calculated as above.
Statistical analysis of the data was determined by Student's t test. Differences with P < 0.05 were considered statistically significant. Fractional error was calculated for the k cat/K m ratio with the following equation: ΔZ=ZΔa/a^2+Δb/b^2 where Z represents the mean k cat/K m and ΔZ represents the fractional error. The Δa represents the SEM of the mean k cat (a). Similarly, Δb represents the SEM of the mean K m (b).

T1 sequence (P12821 643-1222 limits assumed): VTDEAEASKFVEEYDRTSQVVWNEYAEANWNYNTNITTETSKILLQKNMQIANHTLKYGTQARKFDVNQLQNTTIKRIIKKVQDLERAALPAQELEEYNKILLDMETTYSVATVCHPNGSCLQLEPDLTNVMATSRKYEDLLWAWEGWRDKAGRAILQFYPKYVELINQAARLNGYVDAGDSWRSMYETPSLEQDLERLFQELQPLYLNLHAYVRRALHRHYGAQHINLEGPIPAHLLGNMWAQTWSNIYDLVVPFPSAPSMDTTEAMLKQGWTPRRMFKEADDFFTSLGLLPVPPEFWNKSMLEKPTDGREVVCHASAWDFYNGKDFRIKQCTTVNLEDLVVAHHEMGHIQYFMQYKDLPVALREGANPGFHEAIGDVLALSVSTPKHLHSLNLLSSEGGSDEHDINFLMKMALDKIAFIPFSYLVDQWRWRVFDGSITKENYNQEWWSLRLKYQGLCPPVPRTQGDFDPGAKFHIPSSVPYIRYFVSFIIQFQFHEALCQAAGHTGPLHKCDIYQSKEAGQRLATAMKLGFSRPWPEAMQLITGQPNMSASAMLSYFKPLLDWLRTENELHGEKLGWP

Turning to “Abz‐FRHDSG‐(NT) [Aβ(4–10)Y, fluorogenic Aβ(4–10) peptide with NT quencher substituting for Tyr]”, where the note is “mean ± SEM”, the K m came to 27.23 ± 9.52 µM, the V max was 4.45 ± 0.63 and the k cat is 5.33 ± 0.76 s⁻¹. Moreover, the “k cat/K m” value (mean ± fractional error of the ratio) is recorded as 2.30 ± 0.87 M^−1·s^−1 × 10^5.
